From patent US10913742B2, “Oxadiazolones as transient receptor potential channel inhibitors” (Genentech, Inc., priority 2017, dated 2021)

molecular target: human TRPA1 (Homo sapiens (Human), UniProt O75762); assay: hTRPA1 CHO Ca2+ FLIPR assay (block of cinnamaldehyde induced calcium influx); type: cell-based; settings: CHO cells expressing TRPA1; 75 uM cinnamaldehyde; Hill coefficient fixed to 1.5; read-out: hTRPA1 (hTRPA1 CHO Ca2+ MAX EVO (IC50))
Method: CHO cells expressing TRPA1 were plated into 384-well plates, incubated overnight at 37° C., and loaded with BD calcium indicator dye for 1 hr at 37° C. followed by 15 minutes at room temperature. The assay buffer was Hank's Balanced Salt Solution (HBSS) containing 20 mM HEPES (pH readjusted to 7.4) along with 0.02% BSA.
Following dye load and plate cool down, compounds were added to the cells using FLIPR Tetra. Plates were then incubated with compounds for 20 minutes at room temperature prior to adding agonist.
The IC50 results were fit with a standard Hill function, keeping the Hill coefficient (n) fixed to 1.5. Fixing the Hill coefficient will generally reduce variability of the IC50 determination. The IC50 results were individually examined to make sure the MIN and MAX points were set correctly prior to validation of the results.

Chain of human TRPA1 (O75762 whole entry): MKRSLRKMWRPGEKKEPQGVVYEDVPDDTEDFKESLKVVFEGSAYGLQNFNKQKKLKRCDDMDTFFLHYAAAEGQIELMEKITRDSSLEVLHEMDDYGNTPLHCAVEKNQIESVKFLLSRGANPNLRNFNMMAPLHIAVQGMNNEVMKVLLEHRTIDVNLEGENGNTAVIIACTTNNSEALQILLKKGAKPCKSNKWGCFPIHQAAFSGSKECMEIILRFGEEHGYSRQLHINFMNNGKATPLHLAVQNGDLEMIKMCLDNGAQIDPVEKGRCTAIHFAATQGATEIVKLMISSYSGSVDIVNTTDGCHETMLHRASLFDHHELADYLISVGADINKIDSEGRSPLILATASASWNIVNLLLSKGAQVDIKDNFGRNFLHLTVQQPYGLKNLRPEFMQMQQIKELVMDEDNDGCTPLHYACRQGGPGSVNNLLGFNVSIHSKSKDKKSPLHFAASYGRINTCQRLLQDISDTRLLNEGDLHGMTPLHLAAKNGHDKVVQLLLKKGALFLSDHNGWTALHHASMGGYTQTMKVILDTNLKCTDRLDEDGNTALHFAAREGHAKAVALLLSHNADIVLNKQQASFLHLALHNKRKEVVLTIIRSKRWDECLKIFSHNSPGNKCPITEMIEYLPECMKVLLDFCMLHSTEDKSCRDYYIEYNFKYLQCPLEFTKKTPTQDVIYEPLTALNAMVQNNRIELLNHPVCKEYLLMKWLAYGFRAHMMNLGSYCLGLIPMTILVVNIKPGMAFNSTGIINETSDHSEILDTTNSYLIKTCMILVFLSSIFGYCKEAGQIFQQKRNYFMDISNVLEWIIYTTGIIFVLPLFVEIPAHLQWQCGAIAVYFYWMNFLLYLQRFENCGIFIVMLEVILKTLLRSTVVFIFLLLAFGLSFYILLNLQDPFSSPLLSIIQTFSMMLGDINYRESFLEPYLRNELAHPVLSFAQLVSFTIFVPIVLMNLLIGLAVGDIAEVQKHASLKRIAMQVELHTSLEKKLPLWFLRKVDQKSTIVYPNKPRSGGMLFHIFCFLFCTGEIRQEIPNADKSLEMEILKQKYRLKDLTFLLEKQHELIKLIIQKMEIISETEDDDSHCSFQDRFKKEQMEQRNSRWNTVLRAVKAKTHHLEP

IC50 [µM]	Compound
0.00476	Cc1ccnc2ncn(Cc3nn([C@@H]4CC[C@@H](c5ccc(F)cc5)C4)c(=O)o3)c(=O)c12 (racemic) [compound 67, 5-[(5-methyl-4-oxo-pyrido[2,3-d]pyrimidin-3-yl)methyl]-3-[rac-(1R,3R)-3-(4-fluorophenyl)cyclopentyl]-1,3,4-oxadiazol-2-one]
0.0758	Cn1cnc2ncn(Cc3nn([C@@H]4CC[C@@H](c5cccc(F)c5)C4)c(=O)o3)c(=O)c21 (racemic) [compound 76, 5-[(7-methyl-6-oxo-purin-1-yl)methyl]-3-[rac-(1R,3R)-3-(3-fluorophenyl)cyclopentyl]-1,3,4-oxadiazol-2-one]
0.0406	O=c1c2cccnc2ncn1Cc1nn([C@@H]2CC[C@@H](c3ccc(F)cc3)C2)c(=O)o1 (racemic) [compound 78, 5-[(4-oxopyrido[2,3-d]pyrimidin-3-yl)methyl]-3-[rac-(1R,3R)-3-(4-fluorophenyl)cyclopentyl]-1,3,4-oxadiazol-2-one]
0.0119	Cc1ccnc2ncn(Cc3nn(C[C@H](F)c4ccc(OC(F)F)cc4)c(=O)o3)c(=O)c12 (racemic) [compound 80, 5-[(5-methyl-4-oxo-pyrido[2,3-d]pyrimidin-3-yl)methyl]-3-[rac-(2R)-2-[4-(difluoromethoxy)phenyl]-2-fluoro-ethyl]-1,3,4-oxadiazol-2-one]
0.05	O=c1c2cccnc2ncn1Cc1nn(C[C@H](F)c2ccc(OC(F)F)cc2)c(=O)o1 (racemic) [compound 81, 5-[(4-oxopyrido[2,3-d]pyrimidin-3-yl)methyl]-3-[rac-(2R)-2-[4-(difluoromethoxy)phenyl]-2-fluoro-ethyl]-1,3,4-oxadiazol-2-one]
0.0439	Cn1cnc2ncn(Cc3nn([C@@H]4C[C@@H](F)[C@@H](c5ccc(Cl)cc5)C4)c(=O)o3)c(=O)c21 (racemic) [compound 82, 5-[(7-methyl-6-oxo-purin-1-yl)methyl]-3-[rac-(1S,3R,4R)-3-(4-chlorophenyl)-4-fluoro-cyclopentyl]-1,3,4-oxadiazol-2-one]
0.166	Cn1cnc2ncn(Cc3nn(C[C@H](F)c4cccc(Cl)c4)c(=O)o3)c(=O)c21 (racemic) [compound 84, 5-[(7-methyl-6-oxo-purin-1-yl)methyl]-3-[rac-(2R)-2-(3-chlorophenyl)-2-fluoro-ethyl]-1,3,4-oxadiazol-2-one]
0.0438	Cn1c(=O)ccc2ncn(Cc3nn(C[C@H](F)c4ccc(Cl)cc4)c(=O)o3)c(=O)c21 (racemic) [compound 87, 5-methyl-3-[[5-oxo-4-[rac-(2R)-2-(4-chlorophenyl)-2-fluoro-ethyl]-1,3,4-oxadiazol-2-yl]methyl]pyrido[3,2-d]pyrimidine-4,6-dione]
0.0485	O=c1c2cccnc2ncn1Cc1nn(C[C@H](F)c2ccc(Cl)cc2)c(=O)o1 (racemic) [compound 95, 5-[(4-oxopyrido[2,3-d]pyrimidin-3-yl)methyl]-3-[rac-(2R)-2-(4-chlorophenyl)-2-fluoro-ethyl]-1,3,4-oxadiazol-2-one]
0.0361	Cn1cnc2ncn(Cc3nn([C@@H]4CC[C@@H](c5cccc(Cl)c5)C4)c(=O)o3)c(=O)c21 (racemic) [compound 101, 5-[(7-methyl-6-oxo-purin-1-yl)methyl]-3-[rac-(1R,3R)-3-(3-chlorophenyl)cyclopentyl]-1,3,4-oxadiazol-2-one]
0.156	Cn1cnc2ncn(Cc3nn([C@H]4CC[C@H](c5ccccc5)C4)c(=O)o3)c(=O)c21 (racemic) [compound 108, 5-[(7-methyl-6-oxo-purin-1-yl)methyl]-3-[rac-(1S,3S)-3-phenylcyclopentyl]-1,3,4-oxadiazol-2-one]
0.0191	Cn1cnc2ncn(Cc3nn(C[C@H](F)c4ccc(OC(F)(F)F)cc4)c(=O)o3)c(=O)c21 (racemic) [compound 109, 5-[(7-methyl-6-oxo-purin-1-yl)methyl]-3-[rac-(2R)-2-fluoro-2-[4-(trifluoromethoxy)phenyl]ethyl]-1,3,4-oxadiazol-2-one]
0.0813	Cn1cnc2ncn(Cc3nn(C[C@H](F)c4ccc(OC(F)F)cc4)c(=O)o3)c(=O)c21 (racemic) [compound 110, 5-[(7-methyl-6-oxo-purin-1-yl)methyl]-3-[rac-(2R)-2-[4-(difluoromethoxy)phenyl]-2-fluoro-ethyl]-1,3,4-oxadiazol-2-one]
0.18	Cc1ccnc2ncn(Cc3nn(CC(F)c4ccc(Cl)cc4)c(=O)o3)c(=O)c12 (stereo in doubt) [compound 33, 5-[(5-methyl-4-oxo-pyrido[2,3-d]pyrimidin-3-yl)methyl]-3-[(2R)-2-(4-chlorophenyl)-2-fluoro-ethyl]-1,3,4-oxadiazol-2-one]
0.005	Cc1ccnc2ncn(Cc3nn(CC(F)c4ccc(Cl)cc4)c(=O)o3)c(=O)c12 (stereo in doubt) [compound 34, 5-[(5-methyl-4-oxo-pyrido[2,3-d]pyrimidin-3-yl)methyl]-3-[(2S)-2-(4-chlorophenyl)-2-fluoro-ethyl]-1,3,4-oxadiazol-2-one]
0.007	Cn1cnc2ncn(Cc3nn(CC(F)c4ccc5ccccc5c4)c(=O)o3)c(=O)c21 (stereo in doubt) [compound 38, 5-[(7-methyl-6-oxo-purin-1-yl)methyl]-3-[(2S)-2-fluoro-2-(2-naphthyl)ethyl]-1,3,4-oxadiazol-2-one]

IC50 [µM]	Compound
0.095	Cn1cnc2ncn(Cc3nn(CCc4ccc(Cl)cc4)c(=O)o3)c(=O)c21 [compound 1, 3-[2-(4-chlorophenyl)ethyl]-5-[(7-methyl-6-oxo-purin-1-yl)methyl]-1,3,4-oxadiazol-2-one]
0.211	Cn1cnc2ncn(Cc3nn(CCc4ccc(OC(F)F)cc4)c(=O)o3)c(=O)c21 [compound 2, 3-(4-(difluoromethoxy)phenethyl)-5-((7-methyl-6-oxo-6H-purin-1(7H)-yl)methyl)-1,3,4-oxadiazol-2(3H)-one]
0.044	Cn1cnc2ncn(Cc3nn(CCc4ccc(Br)cc4)c(=O)o3)c(=O)c21 [compound 3, 3-(4-bromophenethyl)-5-((7-methyl-6-oxo-6H-purin-1(7H)-yl)methyl)-1,3,4-oxadiazol-2(3H)-one]
1.05	Cn1cnc2ncn(Cc3nn(CCc4ccccc4)c(=O)o3)c(=O)c21 [compound 4, 5-((7-methyl-6-oxo-6H-purin-1(7H)-yl)methyl)-3-phenethyl-1,3,4-oxadiazol-2(3H)-one]
1.17	Cn1cnc2ncn(Cc3nn(CCc4ccc(C#N)cc4)c(=O)o3)c(=O)c21 [compound 5, 4-(2-(5-((7-methyl-6-oxo-6H-purin-1(7H)-yl)methyl)-2-oxo-1,3,4-oxadiazol-3(2H)-yl)ethyl)benzonitrile]
0.013	Cc1cncc2ncn(Cc3nn(CCc4ccc(Cl)cc4)c(=O)o3)c(=O)c12 [compound 6, 3-(4-chlorophenethyl)-5-((5-methyl-4-oxopyrido[3,4-d]pyrimidin-3(4H)-yl)methyl)-1,3,4-oxadiazol-2(3H)-one]
0.012	Cc1ccnc2ncn(Cc3nn(CCc4ccc(Cl)cc4)c(=O)o3)c(=O)c12 [compound 7, 3-[2-(4-chlorophenyl)ethyl]-5-[(5-methyl-4-oxo-pyrido[2,3-d]pyrimidin-3-yl)methyl]-1,3,4-oxadiazol-2-one]
0.166	Cc1ccnc2ncn(Cc3nn(CCc4ccc(C#N)cc4)c(=O)o3)c(=O)c12 [compound 8, 4-[2-[5-[(5-methyl-4-oxo-pyrido[2,3-d]pyrimidin-3-yl)methyl]-2-oxo-1,3,4-oxadiazol-3-yl]ethyl]benzonitrile]
0.582	Cn1cnc2ncn(Cc3nn(CCc4ccc(C(F)(F)F)cc4)c(=O)o3)c(=O)c21 [compound 9, 5-((7-methyl-6-oxo-6H-purin-1(7H)-yl)methyl)-3-(4-(trifluoromethyl)phenethyl)-1,3,4-oxadiazol-2(3H)-one]
0.086	Cn1cnc2ncn(Cc3nn(CCc4ccc(OC(F)(F)F)cc4)c(=O)o3)c(=O)c21 [compound 10, 5-((7-methyl-6-oxo-6H-purin-1(7H)-yl)methyl)-3-(4-(trifluoromethoxy)phenethyl)-1,3,4-oxadiazol-2(3H)-one]
0.278	COc1ccc(CCn2nc(Cn3cnc4ncn(C)c4c3=O)oc2=O)cc1 [compound 11, 3-(4-methoxyphenethyl)-5-((7-methyl-6-oxo-6H-purin-1(7H)-yl)methyl)-1,3,4-oxadiazol-2(3H)-one]
0.041	Cn1cnc2ncn(Cc3nn(CCc4ccc5ccccc5c4)c(=O)o3)c(=O)c21 [compound 12, 5-((7-methyl-6-oxo-6H-purin-1(7H)-yl)methyl)-3-(2-(naphthalen-2-yl)ethyl)-1,3,4-oxadiazol-2(3H)-one]
0.265	Cc1nc(C)n2ncn(Cc3nn(CCc4ccc(Cl)cc4)c(=O)o3)c(=O)c12 [compound 13, 3-(4-chlorophenethyl)-5-((5,7-dimethyl-4-oxoimidazo[1,5-f][1,2,4]triazin-3(4H)-yl)methyl)-1,3,4-oxadiazol-2(3H)-one]
0.034	Cn1cnc2ncn(Cc3nn(C[C@H](F)c4ccc(Cl)cc4)c(=O)o3)c(=O)c21 [compound 14, (R)-3-(2-(4-chlorophenyl)-2-fluoroethyl)-5-((7-methyl-6-oxo-6H-purin-1(7H)-yl)methyl)-1,3,4-oxadiazol-2(3H)-one]
3.83	Cn1cnc2ncn(Cc3nn(C[C@@H](F)c4ccc(Cl)cc4)c(=O)o3)c(=O)c21 [compound 15, (S)-3-(2-(4-chlorophenyl)-2-fluoroethyl)-5-((7-methyl-6-oxo-6H-purin-1(7H)-yl)methyl)-1,3,4-oxadiazol-2(3H)-one]
0.356	Cn1cnc2ncn(Cc3nn(CCc4ccc(C5CC5)cc4)c(=O)o3)c(=O)c21 [compound 16, 3-(4-cyclopropylphenethyl)-5-((7-methyl-6-oxo-6H-purin-1(7H)-yl)methyl)-1,3,4-oxadiazol-2(3H)-one]
